Results from patent publication US10322143B2, “Inhibitors of ADAMTS4 or ADAMTS5 for use in preventing or treating cardiac remodeling and chronic heart failure” (Universitetet i Oslo, priority 2013, dated 2019).

Experiments:
ADAMTS4 = ADAMTS4 (Rattus norvegicus (Rat), UniProt Q9ESP7); assay: Active ADAMTS4 protein level (immunoblotting) in MI rats; assay type: in vivo; conditions: PPS-treatment
Experimental: At day 0 to 3 (median 2) after surgery, infarct size was quantified by echocardiography using the Vevo2100 system (Visualsonics Inc, Canada) and magnetic resonance imaging (MRi) using a 9.4 T/210 mm/ASR horizontal bore magnet (Agilent Technologies, Inc., USA). Initially, echocardiography was performed to select moderate to large infarcts ranging approximately 40 to 50%. Thereafter, infarct sizes were exactly measured by late-enhancement gadolinium MRi analyses (Bohl S., et al. American Journal of Physiology, 2009; 296 (4): H1200-H1208) and stratified into small infarcts (stratum 1: <43%, stratum 2: 43-48%), and large infarcts (stratum 3: 48-53%, stratum 4: >53%). The rats in each MI stratum and sham group were randomized to receive intervention or control treatment. The intervention group was treated with 6 mg/kg of sodium PPS (Interfarm AS, Norway), while the control group received vehicle (0.9% NaCl), both injected subcutaneously every third day starting from post-operative day 8-10.
Fractional protein lysates from myocardium of rats having undergone MI treated with PPS or vehicle were extracted as previously described in Example 1 and Didangelos et al. (Journal of Biological Chemistry 2012 Jun. 1; 287(23):19341-5). Protein concentrations were measured by western blotting as previously described in Example 1. […]

ADAMTS4 mRNA = assay: Myocardial ADAMTS4 mRNA expression (qRT-PCR) in aortic banding rats; assay type: in vivo, rat; conditions: AB-rats treated with PPS, left ventricle, six weeks after AB; normalized to RPL4, relative to vehicle-treated sham; median (interquartile range)
Experimental: Three days after AB, rats were stratified by the gradient over the stenosis to ensure similar degree of cardiac stress. Two and two stratified rats were randomized to either 6 mg/kg of the sulfated polysaccharide sodium pentosan polysulfate (PPS) (Interfarm AS, Norway) or vehicle (0.9% NaCl) injected subcutaneously every third day. […] Six weeks after AB or sham operation, the rats were examined by echocardiography and postmortem analysis, performed by experienced investigators (IS, JMA) blinded to treatment group.
In addition, mRNA levels of proteins known to modulate ADAMTS activity or versican function were measured; tissue inhibitor of metalloprotease (TIMP)-3, hyaluronic acid (HA) synthase 1 and 2, and membrane-type (MT)4-MMP, while mRNA levels of ADAMTS1, -4, and versican were quantified in NFB and NCM.
Total RNA was isolated from the left ventricle in AB rats, neonatal rat cardiomyocytes and fibroblasts (RNeasy mini kit, Qiagen, Valencia, Calif.). […] The results were detected on an ABI PRISM 7900 Sequence Detection System (Applied Biosystems, CA).

In the case of pentosan polysulfate [PPS], the “active ADAMTS4 protein levels” value (ADAMTS4) is reported as “decreased” and the “ADAMTS4 mRNA level” value (ADAMTS4 mRNA) is reported as 1.29 (1.00-6.45).
